In ChEMBL document CHEMBL5131471, “Design, synthesis and mechanism studies of novel dual PARP1/BRD4 inhibitors against pancreatic cancer” (Eur J Med Chem, 2022):
The source made the active and inactive calls. The rule behind the calls is not given here.

Assays:
SW1990 [1] = test: Effect on E2F2 gene expression in human SW1990 cells at 6 uM by Q-PCR analysis; type: functional, cell-based
Mus musculus [2] = test: Upregulation of BRD4 expression in nude mouse xenografted with human SW1990 cells at 45 mg/kg, ip measured after 28 days by DAPI staining based laser confocal microscopic analysis; type: functional, organism-based; details: time 28.0 day
SW1990 [3] = test: Induction of apoptosis in human SW1990 cells assessed as necrotic cells at 6 uM measured after 4 days by Annexin V-FITC and propidium iodide staining based flow cytometry (reference value: 2.45%); type: functional; details: time 4 day
SW1990 [4] = test: Effect on BRCA1 gene expression in human SW1990 cells at 6 uM by Q-PCR analysis; type: functional, cell-based
SW1990 [5] = test: Induction of BRCA2 accumulation in nucleus of human SW1990 cells at 6 uM measured after 4 days by Western blot analysis; type: functional, cell-based; details: time 4.0 day
SW1990 [6] = test: Effect on FOXM1 gene expression in human SW1990 cells at 6 uM by Q-PCR analysis; type: functional, cell-based
SW1990 [7] = test: Downregulation of Ki67 expression in human SW1990 cells at 45 mg/kg, ip measured after 28 days by immuno histochemical staining based fluorescence microscopic analysis; type: functional, organism-based; details: time 28.0 day
SW1990 [8] = test: Induction of apoptosis in human SW1990 cells assessed as late apoptotic cells at 6 uM measured after 4 days by Annexin V-FITC and propidium iodide staining based flow cytometry (reference value: 7.23%); type: functional; details: time 4 day
Mus musculus [9] = test: Upregulation of CCNB1 expression in nude mouse xenografted with human SW1990 cells at 45 mg/kg, ip measured after 4 days by Q-PCR analysis; type: functional, organism-based; details: time 4.0 day
[10] = Toxicity in nude mouse xenografted with human SW1990 cells assessed as heart damage at 45 mg/kg, ip administered for 28 days by H and E staining based fluorescence microscopic analysis; type: organism-based; details: in vivo, 672 h, time 28 day
SW1990 [11] = test: Upregulation of CDC25B expression in human SW1990 cells at 6 uM measured after 4 days by Western blot analysis; type: functional, cell-based; details: time 4.0 day
Mus musculus [12] = test: Inhibition of E2F2 expression in nude mouse xenografted with human SW1990 cells at 30 mg/kg, ip measured after 4 days by Western blot analysis; type: functional, organism-based; details: time 4.0 day
SW1990 [13] = test: Downregulation of PARP1 expression in human SW1990 cells at 2 uM measured after 4 days by Western blot analysis; type: functional, cell-based; details: time 4.0 day
Mus musculus [14] = test: Inhibition of homologous recombinant repair in nude mouse xenografted with human SW1990 cells assessed as reversal of olaparib-induced c-Myc expression at 30 mg/kg, ip measured after 4 days by Western blot analysis; type: functional, organism-based; details: time 4.0 day
SW1990 [15] = test: Effect on CDK1 gene expression in human SW1990 cells at 1 to 2 uM by Q-PCR analysis; type: functional, cell-based; details: dose 1-2 µM
Mus musculus [16] = test: Inhibition of PARP1 expression in nude mouse xenografted with human […] cells at 30 mg/kg, ip administered for 28 days by Western blot analysis; type: functional, organism-based; details: time 28.0 day
SW1990 [17] = test: Effect on Rad51 gene expression in human SW1990 cells at 1 to 2 uM by Q-PCR analysis; type: functional, cell-based; details: dose 1-2 µM
SW1990 [18] = test: Induction of cell cycle arrest in human SW1990 cells assessed as accumulation of cells at G2/M phase at 2 uM incubated for 4 days by propidium iodide staining based flow cytometry (reference value: 5.89%); type: functional; details: time 4 day
Mus musculus [19] = test: Inhibition of CDK6 expression in nude mouse xenografted with human SW1990 cells at 30 mg/kg, ip measured after 4 days by Q-PCR analysis; type: functional, organism-based; details: time 4.0 day
Mus musculus [20] = test: Inhibition of homologous recombinant repair in nude mouse xenografted with human SW1990 cells assessed as reversal of olaparib-induced BRCA1 expression at 30 mg/kg, ip measured after 4 days by Western blot analysis; type: functional, organism-based; details: time 4.0 day
SW1990 [21] = test: Effect on CCND1 gene expression in human SW1990 cells at 1 to 2 uM by Q-PCR analysis; type: functional, cell-based; details: dose 1-2 µM
SW1990 [22] = test: Inhibition of CCND1 protein expression in human SW1990 cells at 1 to 2 uM measured after 4 days by Western blot analysis; type: functional, cell-based; details: dose 1-2 µM, time 4.0 day
Mus musculus [23] = test: Inhibition of homologous recombinant repair in nude mouse xenografted with human SW1990 cells assessed as reversal of olaparib-induced HEXIM1 expression at 30 mg/kg, ip measured after 4 days by Western blot analysis; type: functional, organism-based; details: time 4.0 day
SW1990 [24] = test: Induction of apoptosis in human SW1990 cells assessed as late apoptotic cells at 2 uM measured after 4 days by Annexin V-FITC and propidium iodide staining based flow cytometry (reference value: 7.23%); type: functional; details: time 4 day
Mus musculus [25] = test: Inhibition of BRD4 expression in nude mouse xenografted with human SW1900 cells at 30 mg/kg, ip administered for 28 days by Western blot analysis; type: functional, organism-based; details: time 28.0 day
SW1990 [26] = test: Induction of cell cycle arrest in human SW1990 cells assessed as accumulation of cells at S phase at 1 uM incubated for 4 days by propidium iodide staining based flow cytometry (reference value: 29.32%); type: functional; details: time 4 day
SW1990 [27] = test: Effect on FOXM1 gene expression in human SW1990 cells at 4 uM by Q-PCR analysis; type: functional, cell-based
SW1990 [28] = test: Induction of cell cycle arrest in human SW1990 cells assessed as accumulation of cells at G2/M phase at 1 uM incubated for 4 days in presence of 3 uM Olaparib by propidium iodide staining based flow cytometry (reference value: 5.89%); type: functional; details: time 4 day
SW1990 [29] = test: Effect on MDC1 gene expression in human SW1990 cells at 4 uM by Q-PCR analysis; type: functional, cell-based
SW1990 [30] = test: Effect on TOPBP1 gene expression in human SW1990 cells at 1 uM in presence of Olaparib by Q-PCR analysis; type: functional, cell-based
SW1990 [31] = test: Effect on Rad51 gene expression in human SW1990 cells at 1 uM in presence of Olaparib by Q-PCR analysis; type: functional, cell-based
SW1990 [32] = test: Effect on CDK6 gene expression in human SW1990 cells at 4 uM by Q-PCR analysis; type: functional, cell-based
[33] = Toxicity in nude mouse xenografted with human SW1990 cells assessed as spleen damage at 15 mg/kg, ip administered for 28 days in presence of 45 mg/kg Olaparib by H and E staining based fluorescence microscopic analysis; type: organism-based; details: in vivo, 672 h, time 28 day
SW1990 [34] = test: Induction of apoptosis in human SW1990 cells assessed as late apoptotic cells at 1 uM measured after 4 days in presence of 3 uM Olaparib by Annexin V-FITC and propidium iodide staining based flow cytometry (reference value: 7.23%); type: functional; details: time 4 day
SW1990 [35] = test: Induction of DNA damage in human SW1990 cells assessed as increase in gammaH2AX expression at 4 uM incubated for 4 days by DAPI staining based laser confocal microscopic analysis; type: functional, cell-based; details: time 4.0 day
SW1990 [36] = test: Effect on BRCA2 gene expression in human SW1990 cells at 1 uM in presence of Olaparib by Q-PCR analysis; type: functional, cell-based
SW1990 [37] = test: Induction of cell cycle arrest in human SW1990 cells assessed as accumulation of cells at G2/M phase at 4 uM incubated for 4 days by propidium iodide staining based flow cytometry (reference value: 5.89%); type: functional; details: time 4 day
SW1990 [38] = test: Effect on ALDH1A1 gene expression in human SW1990 cells at 1 uM in presence of Olaparib by Q-PCR analysis; type: functional, cell-based

For `O=C(c1cc(Cc2n[nH]c(=O)c3ccccc23)ccc1F)N1CCN(C(=O)C2CC2)CC1` [OLAPARIB], the Activity (SW1990 [1]) was “Active”, the Activity (Mus musculus [2]) was “Active” and the Activity (SW1990 [3]) was 1.66%. For the same molecule, the Activity (SW1990 [4]) was “Active”, the Activity (SW1990 [5]) was “Active” and the Activity (SW1990 [6]) was “Active”. For the same molecule, the Activity (SW1990 [7]) was “Active”, the Activity (SW1990 [8]) was 22.9% and the Activity (Mus musculus [9]) was “Active”. The Activity [10] was “Non-Toxic” and the Activity (SW1990 [11]) was “Active”.

With `Cc1noc(C)c1-c1ccc2c(c1)C(c1ccccc1)N(Cc1nc3c(C(N)=O)cccc3[nH]1)C(=O)N2C` (stereo not drawn) the inhibition (Mus musculus [12]) was “Active”, the Activity (SW1990 [13]) was “Active” and the inhibition (Mus musculus [14]) was “Active”. The Activity (SW1990 [15]) was “Active”, the inhibition (Mus musculus [16]) was “Active” and the Activity (SW1990 [17]) was “Active”. For the same molecule, the Activity (SW1990 [18]) was 12.83%, the inhibition (Mus musculus [19]) was “Active” and the inhibition (Mus musculus [20]) was “Active”. The Activity (SW1990 [21]) was “Active”, the inhibition (SW1990 [22]) was “Active” and the inhibition (Mus musculus [23]) was “Active”. For the same molecule, the Activity (SW1990 [24]) was 39.5%, the inhibition (Mus musculus [25]) was “Active” and the Activity (SW1990 [26]) was 14.98%.

With `Cc1sc2c(c1C)C(c1ccc(Cl)cc1)=N[C@@H](CC(=O)OC(C)(C)C)c1nnc(C)n1-2` the Activity (SW1990 [27]) was “Active”, the Activity (SW1990 [28]) was 9.14% and the Activity (SW1990 [29]) was “Active”. The Activity (SW1990 [30]) was “Active”, the Activity (SW1990 [31]) was “Active” and the Activity (SW1990 [32]) was “Active”. For the same molecule, the Activity [33] was “Non-Toxic”, the Activity (SW1990 [34]) was 34.5% and the Activity (SW1990 [35]) was “Active”. The Activity (SW1990 [36]) was “Active”, the Activity (SW1990 [37]) was 5.51% and the Activity (SW1990 [38]) was “Active”.
